Patent US12398109B2, “2-amino-2-(1,2,3-triazole-4-yl)propane-1,3-diol derivative of novel compound for directly inhibiting ASM activity, and use thereof” (KYUNGPOOK NATIONAL UNIVERSITY INDUSTRY-ACADEMIC COOPERATION …, priority 2018, dated 2025)

Legend:
Sphk = Sphk activity in fibroblasts; conditions: normal or Alzheimer's patient fibroblasts, 10 μM
Procedure: (§2) Human fibroblast lines (normal and PS1) were obtained from Coriell Institute and cultured in a DMEM containing 15% FBS at 37° C. and 5% CO2 and used.
(§3) To measure a concentration level of Sphk, 3 μl of the fibroblast sample was mixed with a Sphk activity buffer and stored at 37° C. Subsequently, 54 μl of ethanol was added and the mixture was centrifuged after terminating a hydrolysis reaction. After 30 μl of a supernatant was transferred to a glass vial, 5 μl of the supernatant was applied to a UPLC system. Each Sphk concentration level was quantified using a UPLC system by comparing the Sphk concentration level with NBD bound to sphingosine and S1P. For extraction and quantification of Ceramide and S1P, lipids were extracted from the samples by a known method, and the dried lipid extract was resuspended in 25 μl of 0.2% Igepal CA-630 (Sigma-Aldrich), and the concentration levels of Ceramide and S1P were quantified using the UPLC system.

S1P receptor 1 (S1PR1) = assay: S1PR1 expression in fibroblasts (Western blot); conditions: normal or Alzheimer's patient fibroblasts, 10 μM
Procedure: Human fibroblast lines (normal and PS1) were obtained from Coriell Institute and cultured in a DMEM containing 15% FBS at 37° C. and 5% CO2 and used. Thereafter, the cell lines were treated with 10 μM of each of the synthesized ASM inhibitory compounds and FTY720 (Cayman), and then changes in ASM activity, Ceramide, S1P, and S1PR1 were measured.
Protein expression of S1PR1 was analyzed using Western blotting. First, antibodies against S1PR1 (abcam) and β-actin (Santa Cruz) were used, and densitometric quantification was performed using ImageJ software (US National Institutes of Health).

S1P = S1P level in fibroblasts; conditions: normal or Alzheimer's patient fibroblasts, 10 μM
Procedure: as §2, §3

[1] = Stability in mouse liver microsomes; format: in vitro ADME
[2] = Stability in human liver microsomes; format: in vitro ADME
[3] = Brain distribution after oral administration in normal mice; format: in vivo, mouse; conditions: oral 10 mg/kg
[4] = Pharmacokinetic test in blood after oral or intravenous administration in normal mice; conditions: mouse, 10 mg/kg
TNF-a, IL-1b, IL-6 = assay: mRNA expression of inflammatory cytokines in brain of APP/PS1 mouse (real-time quantitative PCR); format: in vivo; conditions: SCNPA 100 mg/kg/day, FTY720 1 mg/kg/day
Procedure: A real-time quantitative PCR method was used to measure the expression levels of inflammatory response-related cytokines (TNF-α, IL-1b, and IL-6). Total RNA was extracted from the brain tissue using an RNeasy Plus mini kit (Qiagen, Korea, Ltd), and cDNA was synthesized from 5 μg of total RNA using a kit from Clontech Co., Ltd. (Mountain View, CA). In addition, by using a Corbett research RG-6000 real-time PCR instrument, real-time quantitative PCR was performed by setting 95° C., 10 min; 95° C., 10 sec; 58° C., 15 sec; 72° C., 20 sec as one cycle and repeating 40 cycles.

APP/PS1 mouse [5] = assay: Morris Water Maze test in APP/PS1 mouse; format: in vivo; conditions: compared to SCNPA101 or FTY720
Procedure: (§1) In order to confirm a potential effect on learning and memory, a Morris Water Maze (MWM) test was performed. In the MWM, the mouse learned a task 4 times a day for 10 days, a platform was removed on day 11, and aprobe trial was performed. To evaluate activity and anxiety, an open field test and a dark and light test were performed. In the open field test, the mouse was placed in a quadrangular box for 10 minutes and then overall activity and a time spent to move around a wall side and a center were measured. In the dark and light test, the mouse was placed in a quadrangular box consisting of a dark box and a light box for 10 minutes, and a time staying in each box, the number of reciprocating the boxes, and a time to first enter into a light box were measured.

amyloid-β deposition = assay: Amyloid-β deposition in medulla and hippocampus of APP/PS1 mouse (ThioS, Aβ40, Aβ42 staining); format: in vivo; conditions: 100 mg/kg/day
Procedure: In order to confirm whether the inhibition of ASM activity by administration of the ASM inhibitory compounds has an effect on Alzheimer's lesions, first, the medulla and hippocampus regions of the mouse were stained with Thioflavin S (ThioS) according to a known method to confirm protofibril amyloid-β deposition. In addition, immunofluorescence staining of Aβ40 and Aβ42 was performed to confirm the amyloid-β deposition.

astrocytes (GFAP) = assay: Astrocytes (GFAP) in brain of APP/PS1 mouse; conditions: SCNPA 100 mg/kg/day, FTY720 1 mg/kg/day
in vivo = conditions: mouse, po, 10 mg/kg
APP/PS1 mouse [6] = assay: Open field test and dark & light test in APP/PS1 mouse; format: in vivo; conditions: SCNPA 100 mg/kg/day, FTY720 1 mg/kg/day
Procedure: as §1

Q: Which Sphk activity (Sphk) does the source give for `CCCCCCCCc1ccc(CCC(N)(CO)CO)cc1` [FTY720] here?
A: reduced

Q: What about the “expression of S1PR1” value (S1P receptor 1 (S1PR1)) of the same compound?
A: reduced

Q: And the “expression of S1P” value (S1P)?
A: reduced

Q: With `CCCCCCn1cc(C(N)(CO)CO)nn1` [SCNPA501, 2-amino-2-(1-hexyl-1H-1,2,3-triazol-4-yl)propane-1,3-diol] as the compound, how does the “remaining amount after 30 minutes” value [1] read?
A: 98.21%

Q: And the “metabolic stability (in words)” value [2]?
A: high metabolic stability

Q: What about the brain distribution values [3] of the same compound?
A: 1.41

Q: What about the bioavailability [4] of the same compound?
A: 72.3%

Q: With `CCCCCCCCCn1cc(C(N)(CO)CO)nn1` [SCNPA201, 2-amino-2-(1-nonanyl-1H-1,2,3-triazol-4-yl)propane-1,3-diol] as the compound, how does the “gene expression of inflammatory cytokines TNF-a, IL-1b, and IL-6” value (TNF-a, IL-1b, IL-6) read?
A: restored to a normal level

Q: And the “effect of improving cognition” value (APP/PS1 mouse [5])?
A: more remarkable

Q: What about the “remaining amount after 30 minutes” value [1] of the same compound?
A: 95.66%

Q: And the “metabolic stability (in words)” value [2]?
A: high metabolic stability

Q: What about the Aβ40 deposition (amyloid-β deposition) of the same compound?
A: lowest

Q: And the Aβ42 deposition (amyloid-β deposition)?
A: lowest

Q: What about the “protofibril Aβ deposition (Thioflavin S)” value (amyloid-β deposition) of the same compound?
A: lowest

Q: And the brain distribution values [3]?
A: 3.64

Q: And the bioavailability [4]?
A: 50.3%

Q: Which results are given for `CCCCCCCCCCCCn1cc(C(N)(CO)CO)nn1` [SCNPA101, 2-amino-2-(1-dodecyl-1H-1,2,3-triazol-4-yl)propane-1,3-diol, reference compound]?
A: gene expression of inflammatory cytokines TNF-a, IL-1b, and IL-6 (TNF-a, IL-1b, IL-6): restored to a normal level; activity of astrocytes (astrocytes (GFAP)): significantly decreased; bioavailability (in vivo): 19.6%; remaining amount after 30 minutes [1]: 86.36%; activity and anxiety (APP/PS1 mouse [6]): improved; remaining amount after 30 minutes [2]: 7.8%; Kp ([3]; mouse, brain): 3.61
